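Briefly, cells in 96-well plates were exposed to five compound concentrations for 48 h, and endpoints were estimated by linear interpolation. Abbreviation: GI50, concentration required for 50% inhibition of growth.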 The source made the active and inactive calls. Cut-off read from the data, not from the text of the source: active = GI50 up to about 1.1 µM and inactive = higher.
Columns and labels:
Experiment in all cases: NCI-60 cell line screen, 48 h
[1] = test system: HT-29
[2] = test system: K562
[3] = test system: SK-MEL-2
[4] = test system: EKVX
[5] = test system: HL-60
[6] = test system: MDA-N
[7] = test system: HCT-15
[8] = test system: OVCAR-8
[9] = test system: NCI-H23
[10] = test system: OVCAR-4
[11] = test system: DU-145
[12] = test system: SK-OV-3
[13] = test system: SF-295
[14] = test system: HOP-92
[15] = test system: NCI-H460
[16] = test system: RPMI-8226
[17] = test system: MCF7
[18] = test system: HOP-62
[19] = test system: HCC 2998
[20] = test system: SR

Row | Compound | GI50 [1] | GI50 [2] | GI50 [3] | GI50 [4] | GI50 [5] | GI50 [6] | GI50 [7] [µM] | GI50 [8] | GI50 [9] | GI50 [10] | GI50 [11] | GI50 [12] | GI50 [13] | GI50 [14] | GI50 [15] | GI50 [16] | GI50 [17] | GI50 [18] | GI50 [19] | GI50 [20]
1 | C[N+](C)(C)CCCSc1nc2ccccc2[nH]1 | > 100 µM (inactive) | > 100 µM (inactive) | > 100 µM (inactive) | > 100 µM (inactive) | > 100 µM (inactive) | > 100 µM (inactive) | > 100 | > 100 µM (inactive) | > 100 µM (inactive) | > 100 µM (inactive) | > 100 µM (inactive) | > 100 µM (inactive) | > 100 µM (inactive) | > 100 µM (inactive) | > 100 µM (inactive) | > 100 µM (inactive) | > 100 µM (inactive) | > 100 µM (inactive) | > 100 µM (inactive) | 
2 | COc1cc(OC)c(OC)cc1/C=C/c1cnnc2ccccc12 | > 10 µM (inactive) | 7.85 µM (inactive) | > 10 µM (inactive) | > 10 µM (inactive) | > 10 µM (inactive) | 4.05 µM (inactive) | > 10 | > 10 µM (inactive) | > 10 µM (inactive) | > 10 µM (inactive) | > 10 µM (inactive) | > 10 µM (inactive) | > 10 µM (inactive) | > 10 µM (inactive) | > 10 µM (inactive) | > 10 µM (inactive) | 1.68 µM (inactive) | > 10 µM (inactive) | > 10 µM (inactive) | 
3 | COC(=O)C(C(=O)C(=O)Nc1ccccc1C#N)c1nc2ccc([N+](=O)[O-])cc2nc1O (stereo not given) | > 100 µM (inactive) |  | > 100 µM (inactive) | 78 µM (inactive) |  | > 100 µM (inactive) | > 100 | > 100 µM (inactive) | > 100 µM (inactive) | 53.3 µM (inactive) | > 100 µM (inactive) | > 100 µM (inactive) | > 100 µM (inactive) | > 100 µM (inactive) | > 100 µM (inactive) |  | > 100 µM (inactive) | > 100 µM (inactive) | > 100 µM (inactive) | > 100 µM (inactive)
4 | O=C(OC1C2OC(=O)c3cc(O)c(O)c(O)c3Oc3cc4c(c(O)c3O)-c3c(cc(O)c(O)c3O)C(=O)OCC3OC(O)C(OC(=O)c5cc(O)c(O)c(O)c5Oc5cc6c(c(O)c5O)-c5c(cc(O)c(O)c5O)C(=O)OC1C(COC6=O)OC2O)C(OC(=O)c1cc(O)c(O)c(O)c1)C3OC4=O)c1cc(O)c(O)c(O)c1 (stereo not given) | 17.9 µM (inactive) | 7.8 µM (inactive) |  | 12.5 µM (inactive) | 16.2 µM (inactive) | 21.2 µM (inactive) |  | 27 µM (inactive) | 24.6 µM (inactive) | 17.8 µM (inactive) | 41 µM (inactive) | 12.5 µM (inactive) | 14.7 µM (inactive) | 19 µM (inactive) | 3.52 µM (inactive) | 4.59 µM (inactive) | 50.7 µM (inactive) | 23.4 µM (inactive) |  | 4.61 µM (inactive)
5 | COc1ccc(NC(=O)/C(=N/NC(N)=S)C2C(=O)NC(=S)NC2=O)c(OC)c1 | > 100 µM (inactive) | > 100 µM (inactive) | > 100 µM (inactive) | > 100 µM (inactive) | > 100 µM (inactive) | > 100 µM (inactive) | > 100 | > 100 µM (inactive) | > 100 µM (inactive) | > 100 µM (inactive) | > 100 µM (inactive) | > 100 µM (inactive) | > 100 µM (inactive) | > 100 µM (inactive) | > 100 µM (inactive) | > 100 µM (inactive) | > 100 µM (inactive) |  | > 100 µM (inactive) | 
6 | COc1ccc(NC(=S)Nc2cc(C)cc(C)n2)cc1 | > 100 µM (inactive) | > 100 µM (inactive) | > 100 µM (inactive) | > 100 µM (inactive) | > 100 µM (inactive) | > 100 µM (inactive) | > 100 | > 100 µM (inactive) |  | > 100 µM (inactive) | > 100 µM (inactive) | > 100 µM (inactive) | > 100 µM (inactive) |  | > 100 µM (inactive) | > 100 µM (inactive) | > 100 µM (inactive) | > 100 µM (inactive) |  | > 100 µM (inactive)
7 | COc1cc(S(=O)(=O)Nc2ccc(-c3csc(N)n3)cc2)ccc1Cl | 20.7 µM (inactive) | 18.5 µM (inactive) | 18.8 µM (inactive) | 16.6 µM (inactive) | 15 µM (inactive) | 19.4 µM (inactive) | 20.1 | 22.3 µM (inactive) | 21.2 µM (inactive) | 14.1 µM (inactive) | 18 µM (inactive) |  |  | 22.6 µM (inactive) |  | 19.5 µM (inactive) | 15.2 µM (inactive) |  |  | 21.9 µM (inactive)
8 | CCOC(=O)C(NC(=O)NC(C(=O)OCC)C(=O)OCC)C(=O)OCC | > 100 µM (inactive) | > 100 µM (inactive) | > 100 µM (inactive) | > 100 µM (inactive) |  | > 100 µM (inactive) | > 100 | > 100 µM (inactive) | > 100 µM (inactive) |  | > 100 µM (inactive) | > 100 µM (inactive) | 49.9 µM (inactive) | > 100 µM (inactive) | > 100 µM (inactive) | > 100 µM (inactive) | > 100 µM (inactive) | > 100 µM (inactive) | > 100 µM (inactive) | > 100 µM (inactive)
9 | Cn1nc2ccc([N+](=O)[O-])c(Cn3nnc4ccccc43)c2n1 | > 100 µM (inactive) | > 100 µM (inactive) | > 100 µM (inactive) | 87.9 µM (inactive) | > 100 µM (inactive) | 88.3 µM (inactive) | > 100 | > 100 µM (inactive) | > 100 µM (inactive) | > 100 µM (inactive) | > 100 µM (inactive) | > 100 µM (inactive) | > 100 µM (inactive) | > 100 µM (inactive) | > 100 µM (inactive) | > 100 µM (inactive) | > 100 µM (inactive) | > 100 µM (inactive) | > 100 µM (inactive) | 
10 | COc1c(OC)c(O)c2c(=O)c(OC)c(-c3ccc4c(c3)OCO4)oc2c1O | 36.1 µM (inactive) | 85.3 µM (inactive) | > 100 µM (inactive) | > 100 µM (inactive) | 19.5 µM (inactive) | > 100 µM (inactive) | > 100 | > 100 µM (inactive) | > 100 µM (inactive) | > 100 µM (inactive) | > 100 µM (inactive) | > 100 µM (inactive) | 77.4 µM (inactive) | 1.39 µM (inactive) | > 100 µM (inactive) |  | > 100 µM (inactive) | > 100 µM (inactive) | > 100 µM (inactive) | 
11 | CC1CCCc2c(C#N)c(N)nc(-c3ccc(Cl)cc3)c21 (stereo not given) | 6.75 µM (inactive) | 8.69 µM (inactive) | 15.6 µM (inactive) | 14.7 µM (inactive) | 18.1 µM (inactive) | 31 µM (inactive) | 11.7 | 31 µM (inactive) | 16.8 µM (inactive) |  | 33.7 µM (inactive) | 38.1 µM (inactive) | 18.3 µM (inactive) |  | 22.8 µM (inactive) | 11.1 µM (inactive) | 19.6 µM (inactive) | 5.73 µM (inactive) |  | 42.2 µM (inactive)
12 | CC12OC3(C(O)C1O)C(C(=O)O[C@H]3CO[Si](C)(C)C(C)(C)C)C2S(=O)(=O)c1ccccc1 (stereo not given in full) | 33.3 µM (inactive) | 37.8 µM (inactive) | 88.7 µM (inactive) | 46.9 µM (inactive) | 25.9 µM (inactive) | 61.4 µM (inactive) | 33.7 | 29.9 µM (inactive) |  | 34 µM (inactive) | > 100 µM (inactive) | > 100 µM (inactive) | 43.1 µM (inactive) | 38.3 µM (inactive) | 44.7 µM (inactive) | 27.1 µM (inactive) | 36.1 µM (inactive) | > 100 µM (inactive) |  | 41.9 µM (inactive)
13 | S=C1Cc2c([nH]c3ccccc23)-c2ccccc2N1 | > 100 µM (inactive) | 47.5 µM (inactive) |  | 40.4 µM (inactive) | > 100 µM (inactive) | 96.8 µM (inactive) |  | 38.3 µM (inactive) | 79.1 µM (inactive) | > 100 µM (inactive) | 41.3 µM (inactive) | 24.2 µM (inactive) | 98.6 µM (inactive) | 32.3 µM (inactive) | 35.4 µM (inactive) | > 100 µM (inactive) | > 100 µM (inactive) | 25.9 µM (inactive) |  | 42 µM (inactive)
14 | CCOC(=O)C12CCC(=O)N1N(C)c1ncccc1N2 (stereo not given) | > 100 µM (inactive) | > 100 µM (inactive) | < 0.01 µM (active) | > 100 µM (inactive) |  | > 100 µM (inactive) | > 100 | > 100 µM (inactive) | > 100 µM (inactive) | > 100 µM (inactive) | > 100 µM (inactive) | > 100 µM (inactive) | > 100 µM (inactive) |  | > 100 µM (inactive) | > 100 µM (inactive) | > 100 µM (inactive) | > 100 µM (inactive) | 77.4 µM (inactive) | > 100 µM (inactive)
15 | CN1c2ccccc2S(=O)(=O)n2c(COc3ccc(Cl)cc3)nnc21 | > 100 µM (inactive) | > 100 µM (inactive) | > 100 µM (inactive) | > 100 µM (inactive) | 91 µM (inactive) | > 100 µM (inactive) | > 100 | > 100 µM (inactive) | > 100 µM (inactive) | 59.3 µM (inactive) | > 100 µM (inactive) | 77.1 µM (inactive) | 27 µM (inactive) | 28 µM (inactive) | > 100 µM (inactive) |  | > 100 µM (inactive) | 21.7 µM (inactive) | > 100 µM (inactive) | 
